Laboratory results taken from patent publication US20240034743A9, “TRICYCLIC COMPOUNDS AS EGFR INHIBITORS” (QILU PHARMACEUTICAL CO., LTD., priority 2020, published 2024).
Read-outs that look alike come from different tables or passages of the source.

Assays:
[1] = tested on: Ba/F3_L858R/T790M/C797S cells; assay: Ba/F3_L858R/T790M/C797S cell proliferation inhibition assay (CellTiter-Glo); assay type: cell-based; settings: cell proliferation, 72 h, CellTiter-Glo, read-out: Ba/F3 (L858R/T790M/C797S) IC50
Summary of the method: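 Ba/F3 cells engineered to carry EGFR L858R/T790M/C797S, seeded at 700 cells/well, exposed to serially diluted compound (0.1% DMSO final) for 72 h at 37 °C, 5% CO2. Viability read by CellTiter-Glo luminescence after 30 min at room temperature; IC50 from dose-response fit.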

A431 cells (EGFR WT) = assay: A431 cell proliferation inhibition assay (CellTiter-Glo); assay type: cell-based; settings: cell proliferation, 72 h, CellTiter-Glo, read-out: A431 EGFR WT IC50
Summary of the method: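 Seeded cells grown 24 h, then exposed 72 h (37° C, 5% CO2) to graded compound dilutions at 0.1% DMSO final. Viability read by CellTiter-Glo luminescence after 30 min at room temperature; IC50 fitted from the dose curve.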

EGFR L858R/T790M/C797S = EGFR L858R/T790M/C797S (Homo sapiens (Human), UniProt P00533, C797S/L858R/T790M); assay: In vitro enzymatic TR-FRET (HTRF KinEASE-TK) kinase assay, EGFR L858R/T790M/C797S; assay type: biochemical; settings: kinase activity
Chain of EGFR L858R/T790M/C797S (P00533 25-1210 T790M/C797S/L858R): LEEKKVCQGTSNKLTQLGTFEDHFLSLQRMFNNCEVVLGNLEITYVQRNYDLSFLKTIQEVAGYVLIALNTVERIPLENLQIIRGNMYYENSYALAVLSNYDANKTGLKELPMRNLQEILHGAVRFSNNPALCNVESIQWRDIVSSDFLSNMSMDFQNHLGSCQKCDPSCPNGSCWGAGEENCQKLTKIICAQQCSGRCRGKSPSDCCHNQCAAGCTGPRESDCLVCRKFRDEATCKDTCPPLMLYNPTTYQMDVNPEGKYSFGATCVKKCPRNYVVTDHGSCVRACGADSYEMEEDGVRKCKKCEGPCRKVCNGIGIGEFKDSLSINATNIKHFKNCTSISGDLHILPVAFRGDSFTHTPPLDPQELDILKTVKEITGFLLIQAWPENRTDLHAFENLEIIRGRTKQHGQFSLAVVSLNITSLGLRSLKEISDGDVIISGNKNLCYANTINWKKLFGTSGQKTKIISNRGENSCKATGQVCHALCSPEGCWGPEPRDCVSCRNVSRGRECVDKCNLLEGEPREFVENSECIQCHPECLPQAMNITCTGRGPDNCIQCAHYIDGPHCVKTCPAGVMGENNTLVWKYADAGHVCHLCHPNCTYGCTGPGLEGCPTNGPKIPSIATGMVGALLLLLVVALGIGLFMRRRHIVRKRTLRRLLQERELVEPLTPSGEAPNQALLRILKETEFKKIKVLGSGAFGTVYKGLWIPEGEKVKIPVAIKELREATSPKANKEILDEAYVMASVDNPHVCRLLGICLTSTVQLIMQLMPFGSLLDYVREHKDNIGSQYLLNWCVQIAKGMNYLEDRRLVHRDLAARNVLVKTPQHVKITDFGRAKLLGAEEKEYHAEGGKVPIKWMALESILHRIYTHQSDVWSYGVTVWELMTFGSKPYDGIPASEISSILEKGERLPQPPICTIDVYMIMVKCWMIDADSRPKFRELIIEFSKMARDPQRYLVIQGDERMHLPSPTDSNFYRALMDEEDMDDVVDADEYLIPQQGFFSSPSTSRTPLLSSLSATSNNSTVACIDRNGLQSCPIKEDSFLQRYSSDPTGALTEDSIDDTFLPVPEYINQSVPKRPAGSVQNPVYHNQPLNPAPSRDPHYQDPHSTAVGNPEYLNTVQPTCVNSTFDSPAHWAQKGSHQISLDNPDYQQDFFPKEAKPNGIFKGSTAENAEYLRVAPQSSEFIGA
Experimental: (I) In Vitro Enzymatic Experiment for EGFR WT and EGFR L858R/T790M/C797S
In the assay, the inhibition effect of the compound on the kinase activity of EGFR WT (wild type EGFR) and EGFR L858R/T790M/C797S was tested by adopting a time-resolved fluorescence resonance energy transfer (TR-FRET) method, and half maximal inhibitory concentration IC50 of the compound on the kinase activity of EGFR was obtained.
EGFR recombinase and EGFR L858R/T790M/C797S recombinase, purchased from Signalchem.
HTRF KinEASE-TK kit, purchased from Cisbio.
DTT, MnCl2, and MgCl2, purchased from Sigma.
ATP, purchased from Promega.
Brigatinib, purchased from Selleck.
1) 1× working solution was prepared: 5 mM MgCl2; 1 mM DTT; 1 mM MnCl2 and 1× kinase buffer (in kit).
2) […] of gradiently-diluted compound was transferred to a 384-well plate using Echo 550 (Labcyte).
3) 5 μL of 2× EGFR WT or EGFR L858R/T790M/C797S recombinase solution was added to the 384-well plate, and the plate was incubated at room temperature for 10 min.
4) 5 μL of 2× TK-substrate-biotin substrate solution (containing ATP) was added to the 384-well plate, and the plate was incubated at room temperature for 40 min.
5) 5 μL of assay solution containing Sa-XL 665 HTRF and 5 μL of TK-antibody-Cryptatewas were added to the plate, and the plate was incubated at room temperature for 1 h.
6) The fluorescence signal values at 615 nm and 665 nm were measured for each well using an Envision microplate reader (PerkinElmer).
7) The ratio of fluorescence signal values at 665 nm and 615 nm was calculated for each well.
8) Data analysis was performed using GraphPad Prism software to give the IC50 for compounds.

EGFR WT (wild type EGFR) = EGFR WT (wild type EGFR) (Homo sapiens (Human), UniProt P00533); assay: In vitro enzymatic TR-FRET (HTRF KinEASE-TK) kinase assay, EGFR WT; assay type: biochemical; settings: kinase activity, TR-FRET; read-out: EGFR (WT) IC50
Chain of EGFR WT (wild type EGFR) (P00533 25-1210): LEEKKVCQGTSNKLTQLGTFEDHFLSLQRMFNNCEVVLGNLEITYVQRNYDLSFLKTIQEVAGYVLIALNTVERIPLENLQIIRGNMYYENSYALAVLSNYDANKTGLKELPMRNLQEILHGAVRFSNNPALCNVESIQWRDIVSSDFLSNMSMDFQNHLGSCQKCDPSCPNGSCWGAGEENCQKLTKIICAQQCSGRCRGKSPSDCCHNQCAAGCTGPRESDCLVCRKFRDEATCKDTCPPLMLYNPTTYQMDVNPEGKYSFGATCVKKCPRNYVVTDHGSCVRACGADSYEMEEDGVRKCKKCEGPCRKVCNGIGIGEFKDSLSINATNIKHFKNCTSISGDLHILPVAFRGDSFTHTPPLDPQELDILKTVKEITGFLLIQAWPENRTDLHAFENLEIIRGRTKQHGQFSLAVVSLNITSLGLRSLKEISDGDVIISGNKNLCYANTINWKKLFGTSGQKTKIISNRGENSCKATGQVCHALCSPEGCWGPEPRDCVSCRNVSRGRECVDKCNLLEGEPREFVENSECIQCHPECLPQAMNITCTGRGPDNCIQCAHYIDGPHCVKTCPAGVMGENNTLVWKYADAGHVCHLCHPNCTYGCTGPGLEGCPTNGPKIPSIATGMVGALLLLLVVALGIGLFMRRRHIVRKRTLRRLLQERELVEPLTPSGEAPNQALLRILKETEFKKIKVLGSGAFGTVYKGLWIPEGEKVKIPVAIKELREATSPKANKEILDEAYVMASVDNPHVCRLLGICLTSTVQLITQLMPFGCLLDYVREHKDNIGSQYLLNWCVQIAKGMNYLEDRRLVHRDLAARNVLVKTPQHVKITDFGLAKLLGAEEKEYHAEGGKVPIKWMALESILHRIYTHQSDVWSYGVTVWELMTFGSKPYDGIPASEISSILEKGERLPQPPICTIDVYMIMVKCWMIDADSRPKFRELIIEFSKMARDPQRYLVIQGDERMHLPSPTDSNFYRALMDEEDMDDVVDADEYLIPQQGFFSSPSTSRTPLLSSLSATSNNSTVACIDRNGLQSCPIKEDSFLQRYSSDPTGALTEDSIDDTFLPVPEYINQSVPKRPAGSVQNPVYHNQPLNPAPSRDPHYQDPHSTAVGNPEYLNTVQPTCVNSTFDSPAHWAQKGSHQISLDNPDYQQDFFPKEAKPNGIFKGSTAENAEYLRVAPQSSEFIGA
Summary of the method: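 Recombinant enzyme preincubated with compound 10 min at room temperature in kinase buffer with 5 mM MgCl2, 1 mM MnCl2, 1 mM DTT. Biotinylated TK substrate plus ATP then added for 40 min. HTRF detection (Sa-XL665, Cryptate antibody) for 1 h; IC50 from 665/615 nm ratio.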

[2] = tested on: Ba/F3_Del19/T790M/C797S cells; assay: Ba/F3_Del19/T790M/C797S cell proliferation inhibition assay (CellTiter-Glo); assay type: cell-based; settings: cell proliferation, 72 h, CellTiter-Glo, read-out: Ba/F3 (Del19/T790M/C797S) IC50
Summary of the method: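 Ba/F3 cells carrying EGFR Del19/T790M/C797S were seeded at 700 cells/well and exposed to serially diluted compound (0.1% DMSO final) for 72 h at 37° C. Viability was read by CellTiter-Glo luminescence to give IC50.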

Structure (SMILES)	IC50 [1] [nM]	IC50 (A431 cells (EGFR WT)) [nM]	IC50 (EGFR L858R/T790M/C797S) [nM]	IC50 (EGFR WT (wild type EGFR)) [nM]	IC50 [2] [nM]	IC50 ([1]; Mus musculus, BaF3) [nM]	IC50 (A431 cells (EGFR WT); Homo sapiens, A-431) [nM]	IC50 ([2]; Mus musculus, BaF3) [nM]
COc1cc2c(cc1Nc1ncc(Br)c(Nc3ccccc3P(C)(C)=O)n1)-c1cnn(C)c1CCN2[C@@H]1CCN(C)C[C@H]1F (single isomer, unassigned) [Compound 66A]	10 to 50	100 to 1000	< 1	1 to 10	< 10	–	–	–
COc1cc2c(cc1Nc1ncc(Br)c(Nc3ccccc3P(C)(C)=O)n1)-c1cnn(C)c1CCN2[C@H]1CCN(C)C[C@@H]1F (single isomer, unassigned) [Compound 66B]	10 to 50	100 to 1000	< 1	1 to 10	< 10	–	–	–
COc1cc2c(cc1Nc1ncc(C)c(Nc3ccc4nccnc4c3P(C)(C)=O)n1)-c1cnn(C)c1CCN2C [Compound 5]	–	–	< 1	< 1	–	< 10	50 to 100	< 10
COc1cc2c(cc1Nc1ncc(Br)c(Nc3ccc4nccnc4c3P(C)(C)=O)n1)-c1cnn(C)c1CCN2C1CN(C)C1 [Compound 10]	–	–	< 1	< 1	–	< 10	10 to 50	< 10
COc1cc2c(cc1Nc1ncc(F)c(Nc3ccccc3P(C)(C)=O)n1)-c1cnn(C)c1CCN2C [Compound 17]	–	–	1 to 10	1 to 10	–	50 to 100	100 to 1000	10 to 50
Cc1cnc(Nc2cc3c(cc2OC(C)C)N(C)CCc2c-3cnn2C)nc1Nc1ccccc1P(C)(C)=O [Compound 18]	–	–	1 to 10	50 to 100	–	100 to 1000	> 1000	50 to 100
COc1cc2c(cc1Nc1nccc(Nc3ccccc3P(C)(C)=O)n1)-c1cnn(C)c1CCN2C [Compound 22]	–	–	1 to 10	10 to 50	–	100 to 1000	> 1000	10 to 50
COc1cc2c(cc1Nc1ncc(C)c(Nc3ccccc3P(C)(C)=O)n1)-c1cnn(C)c1CCN2C#N [Compound 23]	–	–	1 to 10	10 to 50	–	50 to 100	100 to 1000	10 to 50
COc1cc2c(cc1Nc1ncc(C3CC3)c(Nc3ccccc3P(C)(C)=O)n1)-c1cnn(C)c1CCN2C [Compound 30]	–	–	< 1	10 to 50	–	50 to 100	100 to 1000	10 to 50
COc1ccc(Cn2ncc3c2CCN(C)c2cc(OC)c(Nc4ncc(Br)c(Nc5ccccc5P(C)(C)=O)n4)cc2-3)cc1 [Compound 34]	–	–	1 to 10	50 to 100	–	10 to 50	> 1000	10 to 50
COc1cc2c(cc1Nc1ncc(Br)c(Nc3ccc4nccnc4c3NS(C)(=O)=O)n1)-c1cnn(C)c1CCN2C [Compound 35]	–	–	< 1	< 1	–	10 to 50	100 to 1000	< 10
COc1cc2c(cc1Nc1ncc(Cl)c(Nc3ccccc3P(C)(C)=O)n1)-c1cnn(C)c1CCN2C(C)C [Compound 45]	–	–	< 1	1 to 10	–	10 to 50	100 to 1000	< 10
COc1ccc(CN2Cc3cc(OC)c(Nc4ncc(Br)c(Nc5ccc6nccnc6c5P(C)(C)=O)n4)cc3-c3cnn(C)c3C2)c(OC)c1 [Compound 57]	–	–	1 to 10	50 to 100	–	50 to 100	100 to 1000	10 to 50
COc1cc2c(cc1Nc1ncc(Br)c(Nc3ccc4nccnc4c3P(C)(C)=O)n1)-c1cnn(C)c1CCN2C1CCN(C)C[C@@H]1F (some centres unmarked) [Compound 68]	< 10	50 to 100	< 1	< 1	< 10	–	–	–
COc1cc2c(cc1Nc1ncc(Br)c(Nc3ccccc3P(C)(C)=O)n1)-c1cnn(C3COC3)c1CCN2C(C)C [Compound 77A]	10 to 50	100 to 1000	< 1	1 to 10	< 10	–	–	–
COc1cc2c(cc1Nc1ncc(Br)c(Nc3ccccc3P(C)(C)=O)n1)-c1cn(C3COC3)nc1CCN2C(C)C [Compound 77B]	50 to 100	100 to 1000	1 to 10	100 to 1000	50 to 100	–	–	–
COc1cc2c(cc1Nc1ncc(Br)c(Nc3ccccc3P(C)(C)=O)n1)-c1cnn(C)c1CCC2N(C)C (centres unmarked) [Compound 78]	–	–	< 1	1 to 10	–	10 to 50	100 to 1000	< 10
COc1nc2c(cc1Nc1ncc(Br)c(Nc3ccc4nccnc4c3P(C)(C)=O)n1)-c1cnn(C)c1CCN2C [Compound 80]	–	–	< 1	1 to 10	–	< 10	100 to 1000	< 10
COc1cc2c(cc1Nc1ncc(Br)c(Nc3ccc4nccnc4c3C(N)=O)n1)-c1cnn(C)c1CCN2C(C)C [Compound 115]	–	–	1 to 10	–	–	10 to 50	> 1000	< 10
COc1cc2c(cc1Nc1ncc(Br)c(Nc3cccc4c3NS(=O)(=O)C4)n1)-c1cnn(C)c1CCN2C(C)C [Compound 132]	–	–	–	10 to 50	–	10 to 50	> 1000	10 to 50
COc1cc2c(cc1Nc1ncc(Br)c(Nc3ccnc(C)c3NS(C)(=O)=O)n1)-c1cnn(C)c1CCN2C [Compound 136]	–	–	–	1 to 10	–	100 to 1000	> 1000	100 to 1000
COc1cc2c(cc1Nc1ncc(Br)c(Nc3ccc4nccnc4c3CNS(C)(=O)=O)n1)-c1cnn(C)c1CCN2C(C)C [Compound 137]	–	–	–	1 to 10	–	10 to 50	100 to 1000	10 to 50
COc1cc2c(cc1Nc1ncc(Br)c(Nc3ccc4nccnc4c3N(C)S(C)(=O)=O)n1)-c1cnn(C)c1CCN2C1CCOCC1 [Compound 138]	–	–	–	1 to 10	–	< 10	100 to 1000	< 10
